Data on one compound can be found in patent US8987321B2, “Lisofylline analogs and methods for use” (University of Virginia Patent Foundation, priority 2005, dated 2015).

For data set [1], the target named is rCYP 2D6 (Homo sapiens, UniProt P10635). Nature of the data set: rCYP450 inhibition, 2D6. In kind it is in vitro ADME. On the set-up: concentration or dose not given beside the values. As for the experimental part:
(§1) Further evaluations were performed for some of the LSF analogs in MDS assays, solubility, oral bioavailability, and stability (see Table 1). Analogs having greater than 50% inhibitory activity were considered to have high activity; analogs having from 20-49% inhibitory activity were considered to have medium activity; and analogs having less than 20 inhibitory activity were considered to have low activity

A short description of data set [2]: Metabolic stability. It counts as in vitro ADME. As for the experimental part: (§2) Further evaluations were performed for some of the LSF analogs in MDS assays, solubility, oral bioavailability, and stability (see Table 1).
Data set [3] concerns human islets. Kind of data set: Insulin secretion in human islets exposed to cytokines. In kind it is cell-based. The conditions noted are these: human islet, in the presence of inflammatory cytokines. As for the experimental part: (§3) Four compounds (CPW7, CPW8, CPW11, and CPW12) were also evaluated on human islets for the induction of insulin secretion, intracellular ATP concentrations and the effect of reducing cell death exposed to cytokines (combination of human IL-1β, IFN-γ, and TNF-α). The results are illustrated FIGS. 7A-7D.

In data set [4] the test system is mouse-origin β-TC6 cells. Kind of data set: β-cell apoptosis protection after inflammatory cytokines, pancreatic β cell lines. In kind it is cell-based. To be noted: mouse islet cell line. On the procedure:
(§4) The disclosed analogs (CPW1-15) were evaluated in pancreatic β cell lines for apoptosis protection after treatment with inflammatory cytokines (reflected by reduced OD450) and insulin-release (see FIGS. 5 and 6).
The β-TC6 cell line is maintained in RPMI 1640 medium (Life Technologies, Rockville, Md.) supplemented with 10% heat inactivated fetal bovine serum, 10 mM HEPES, […] L-glutamine, 50 units/ml penicillin and 50 μg/ml streptomycin at pH 7.4. The cells are cultured in a 37° C., humidified incubator supplied with 5% carbon dioxide. Fresh media is replaced every two days. Unless otherwise stated, the cells are plated at a density of 10^5/cm^2. Culture vessels (dishes and chamber slides) used for experiments were coated with poly-D-lysine and gelatin (Sigma, St. Louis, Mo.) to retain detached and dead cells so that seeding cell numbers reflect the actual cell numbers after all treatment conditions.
β-TC6 cells are treated with vehicle alone or with the combination of recombinant mouse IL-1β (5 ng/ml), IFN-γ (100 ng/ml) and TNF-α (10 ng/ml) (R&D Systems, Minneapolis, Minn.) suspended in complete RPMI medium. LSF (Cell Therapeutics, Inc. Seattle, Wash.) or the analogs are added simultaneously with the cytokines in complete RPMI medium in the concentrations ranging 1 nM-[…]. All treatments are conducted for 18 hours. The results are illustrated in FIGS. 5A-8P.

In data set [5] the test system is mouse-origin β-TC6 cells. Nature of the data set: Insulin release, pancreatic β cell lines. The conditions noted are these: mouse islet cell line. In kind it is cell-based. On the procedure: as §4
At the end of treatment, cells are washed with Krebs-Ringer-bicarbonate-HEPES buffer (KR13) containing in mM: 134 NaCl, 4.7 KCl, 1.2 KH2P04, 1.2 MgS04, 1.0 CaCI2, 10 HEPES, and 0.1% bovine serum albumin at 37° C., at a pH of 7.4. The cells are pre incubated in the same buffer for 30 min followed by 60-min incubation in KRB supplemented with 15 mM D-glucose (J. T. Baker, Phillisburg, N.J.). The supernatant is harvested and subjected to centrifugation to eliminate residue cells. Insulin secreted into the supernatant is measured using EIA with mouse insulin as a standard. The results are illustrated in FIGS. 9A-9P.

The target of data set [6] is rCYP 2C9 (Homo sapiens, UniProt P11712). Kind of data set: rCYP450 inhibition, 2C9. Also noted: concentration or dose not given beside the values. In kind it is in vitro ADME. On the procedure: as §1
Sequence of rCYP 2C9 (P11712 whole entry): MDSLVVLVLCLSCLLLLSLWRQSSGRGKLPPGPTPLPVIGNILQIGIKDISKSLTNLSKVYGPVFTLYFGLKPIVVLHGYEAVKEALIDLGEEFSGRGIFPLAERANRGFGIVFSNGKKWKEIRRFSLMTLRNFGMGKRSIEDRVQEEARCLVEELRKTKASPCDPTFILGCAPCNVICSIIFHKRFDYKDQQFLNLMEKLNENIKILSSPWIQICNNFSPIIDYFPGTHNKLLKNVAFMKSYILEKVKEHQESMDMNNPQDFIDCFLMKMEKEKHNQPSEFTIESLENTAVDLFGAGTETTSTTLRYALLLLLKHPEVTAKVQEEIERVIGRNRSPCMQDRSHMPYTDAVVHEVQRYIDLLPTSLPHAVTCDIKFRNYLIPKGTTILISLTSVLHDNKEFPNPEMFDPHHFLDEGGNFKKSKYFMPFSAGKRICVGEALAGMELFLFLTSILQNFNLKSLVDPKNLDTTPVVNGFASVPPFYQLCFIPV
Data set [7] relates to human islets. Kind of data set: Intracellular ATP concentrations (mitochondrial function) in human islets. In kind it is cell-based. The conditions noted are these: human β-cells. As for the experimental part:
as §3

Data set [8] concerns cytochrome p450. Nature of the data set: cytochrome p450 inhibition, overall statement. In kind it is in vitro ADME. The text has this:
Analogs having greater than 50% inhibitory activity were considered to have high activity; analogs having from 20-49% inhibitory activity were considered to have medium activity; and analogs having less than 20 inhibitory activity were considered to have low activity

For data set [9], the target named is T1, rCYP 1A2 (Homo sapiens, UniProt P05177).
T1 sequence (P05177 1-516): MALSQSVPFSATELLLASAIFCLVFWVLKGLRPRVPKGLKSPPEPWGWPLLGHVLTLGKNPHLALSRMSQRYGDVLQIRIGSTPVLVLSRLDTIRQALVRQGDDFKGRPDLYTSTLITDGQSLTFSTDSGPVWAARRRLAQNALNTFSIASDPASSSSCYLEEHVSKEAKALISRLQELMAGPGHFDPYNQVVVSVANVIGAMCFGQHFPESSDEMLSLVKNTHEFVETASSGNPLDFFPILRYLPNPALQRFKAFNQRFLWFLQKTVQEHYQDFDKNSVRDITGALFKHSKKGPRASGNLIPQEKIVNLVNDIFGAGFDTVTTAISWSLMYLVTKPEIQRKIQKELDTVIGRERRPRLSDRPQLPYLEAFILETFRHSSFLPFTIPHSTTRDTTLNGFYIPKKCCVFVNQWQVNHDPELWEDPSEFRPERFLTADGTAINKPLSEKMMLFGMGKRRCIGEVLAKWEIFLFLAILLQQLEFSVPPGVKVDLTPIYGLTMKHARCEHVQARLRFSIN
Kind of data set: rCYP450 inhibition, 1A2. It counts as in vitro ADME. On the set-up: concentration or dose not given beside the values. On the procedure: as §1

Data set [10] addresses rCYP 2C19 (Homo sapiens, UniProt P33261). Kind of data set: rCYP450 inhibition, 2C19. On the set-up: concentration or dose not given beside the values. In kind it is in vitro ADME. On the procedure: as §1
Data set [11] can be described thus: Solubility. In kind it is physicochemical. The conditions noted are these: in words. On the procedure:
as §2

The target in data set [12] is rCYP 3A4 (Homo sapiens, UniProt P08684). Kind of data set: rCYP450 inhibition, 3A4. It counts as in vitro ADME. On the set-up: concentration or dose not given beside the values. As for the experimental part:
as §1

Data set [13] concerns Caco-2. Nature of the data set: Caco-2 permeability test. In kind it is in vitro ADME. Background: Caco-2 monolayers are a common model of the intestinal barrier.

Molecules are shown by their SMILES.

Sequence of rCYP 3A4 (P08684 whole entry): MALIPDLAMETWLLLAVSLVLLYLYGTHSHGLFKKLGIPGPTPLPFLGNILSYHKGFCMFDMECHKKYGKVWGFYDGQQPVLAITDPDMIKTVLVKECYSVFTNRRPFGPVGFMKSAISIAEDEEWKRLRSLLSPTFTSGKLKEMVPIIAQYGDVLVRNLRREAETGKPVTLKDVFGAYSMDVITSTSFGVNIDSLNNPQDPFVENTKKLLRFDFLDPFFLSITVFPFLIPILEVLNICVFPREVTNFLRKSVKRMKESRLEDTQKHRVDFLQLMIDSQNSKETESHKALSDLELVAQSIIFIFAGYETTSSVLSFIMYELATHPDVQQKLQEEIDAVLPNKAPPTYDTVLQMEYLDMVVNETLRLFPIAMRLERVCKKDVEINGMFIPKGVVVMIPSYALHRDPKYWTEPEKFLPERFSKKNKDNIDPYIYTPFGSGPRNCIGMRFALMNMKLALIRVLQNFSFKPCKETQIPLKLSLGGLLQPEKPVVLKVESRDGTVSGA
Sequence of rCYP 2D6 (P10635 whole entry): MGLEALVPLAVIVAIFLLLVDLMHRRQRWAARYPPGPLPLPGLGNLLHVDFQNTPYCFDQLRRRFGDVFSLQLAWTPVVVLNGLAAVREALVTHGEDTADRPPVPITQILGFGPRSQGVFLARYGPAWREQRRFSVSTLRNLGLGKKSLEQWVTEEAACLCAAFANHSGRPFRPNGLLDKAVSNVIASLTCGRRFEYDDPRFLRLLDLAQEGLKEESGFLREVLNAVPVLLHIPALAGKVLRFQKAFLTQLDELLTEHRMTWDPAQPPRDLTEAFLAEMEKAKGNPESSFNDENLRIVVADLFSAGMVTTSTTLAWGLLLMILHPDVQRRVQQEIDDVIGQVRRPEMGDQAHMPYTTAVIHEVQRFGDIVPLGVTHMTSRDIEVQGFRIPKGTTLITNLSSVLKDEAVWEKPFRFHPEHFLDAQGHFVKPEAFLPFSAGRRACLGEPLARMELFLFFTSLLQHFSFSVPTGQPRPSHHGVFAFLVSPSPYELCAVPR
Sequence of rCYP 2C19 (P33261 whole entry): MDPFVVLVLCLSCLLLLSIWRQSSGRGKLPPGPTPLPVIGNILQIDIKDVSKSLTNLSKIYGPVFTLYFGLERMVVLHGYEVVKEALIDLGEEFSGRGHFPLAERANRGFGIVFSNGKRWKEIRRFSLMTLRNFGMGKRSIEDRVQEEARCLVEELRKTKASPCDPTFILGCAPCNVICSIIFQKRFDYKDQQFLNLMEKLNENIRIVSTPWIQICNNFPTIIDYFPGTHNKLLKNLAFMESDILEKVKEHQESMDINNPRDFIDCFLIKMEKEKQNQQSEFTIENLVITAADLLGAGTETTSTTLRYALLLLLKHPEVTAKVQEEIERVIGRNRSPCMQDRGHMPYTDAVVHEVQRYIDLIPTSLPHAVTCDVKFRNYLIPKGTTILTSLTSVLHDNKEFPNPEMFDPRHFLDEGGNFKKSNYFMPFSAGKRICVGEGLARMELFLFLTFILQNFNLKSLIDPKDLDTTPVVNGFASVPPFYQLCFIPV

In the case of `C[C@@H](O)CCCCOc1n[nH]c(=O)c2ccccc12` [CPW12], the “rCYP % Inhibition 2D6” value in data set [1] turned out to be 12%. The “Metabolic Stability Percent Remaining” value in data set [2] was determined as 75%. In data set [2] (in words), the stability entry is reported as “acceptable”. In addition, the insulin secretion result in data set [3] is given as “positive effects”. The β-cell protection result in [4] is on record as “positive effects”. The insulin release result in data set [5] is “positive effects”. For the same compound, the “rCYP % Inhibition 2C9” value in data set [6] is 30%. The maintaining mitochondrial function result in data set [7] is “beneficial effect”. The “cytochrome p450 inhibition” value in [8] is “low (less than 20 inhibitory activity)”. In addition, the “rCYP % Inhibition 1A2” value in [9] amounted to 18%. Also, the “rCYP % Inhibition 2C19” value in data set [10] turned out to be 30%. The solubility entry in [11] was “acceptable”. Further, the “rCYP % Inhibition 3A4” value in data set [12] came out at 4%. In addition, the “Caco-2 permeability test results” value in data set [13] is on record as “could be orally absorbed from the GI track”.
